Results from article PMC11062899, “De novo development of small cyclic peptides that are orally bioavailable” (Nature Chemical Biology, 2023).
“And” between values parts separate entries of the source, which are not always exact repeats. Equal values may be shown once. Read-outs that look alike come from different tables or passages of the source.

Columns and labels:
rat α-thrombin = target: T1, rat α-thrombin (Rattus norvegicus, UniProt P18292); assay: Protease inhibition, Ki for rat α-thrombin (fluorogenic substrate Z-Gly-Gly-Arg-AMC); assay type: biochemical; conditions: for slope normalized to DMSO, rat alpha thrombin inhibition: replicates R1-R3
T1 construct: rat α-thrombin (Molecular Innovations) were used at final concentrations of 2 nM and 3 nM; purchased Molecular Innovations
Procedure, shortened: (§1)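 Inhibition was measured as AMC fluorescence from 50 μM substrate, monitored for 30 min at 25 °C, relative to a peptide-free control. Human and rat enzymes were present at 2 nM and 3 nM final, respectively, in 50 mM Tris-HCl pH 7.4, 150 mM NaCl, 10 mM MgCl2, 1 mM CaCl2. Ki derives from fitted IC50 via Cheng–Prusoff.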

[1] = Passive artificial membrane permeability (PAMPA);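 for Permeability% Average: top well sample relative to theoretical equilibrium sample by TIC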
[2] = Peptide stability in simulated intestinal fluid (SIF); assay type: in vitro ADME, porcine; conditions: pig, simulated gi fluid; 8 h, 37 °C, pH 6.8; read-out: Proteolytic stability: SIF (8 h) % remaining
Procedure, shortened: (§2)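 Peptide from a 1 mM DMSO stock was added to fluid pre-warmed at 37 °C. SGF was pH 1.2 NaCl with porcine pepsin (0.32 g per 100 ml), and SIF was pH 6.8 potassium phosphate with porcine pancreatin (1 g per 100 ml). Supernatant peptide was quantified by LC–MS, with residual expressed as T1/T0.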

human α-thrombin = human α-thrombin (Homo sapiens, UniProt P00734); assay: Protease inhibition, Ki for human α-thrombin (fluorogenic substrate Z-Gly-Gly-Arg-AMC); assay type: biochemical; conditions: for slope normalized to DMSO, human alpha thrombin inhibition: replicates R1-R3
Procedure, shortened: as §1

porcine pepsin = target: T2, porcine pepsin (Sus scrofa, UniProt P00791); assay: Peptide stability in simulated gastric fluid (SGF); assay type: in vitro ADME; conditions: pig, simulated gi fluid; 8 h, 37 °C, pH 1.2; read-out: Proteolytic stability: SGF (8 h) % remaining
T2 construct: 0.32 g of porcine pepsin (Sigma-Aldrich, P7125) was dissolved under gentle agitation; purchased Sigma-Aldrich P7125
T2 sequence (P00791 60-385): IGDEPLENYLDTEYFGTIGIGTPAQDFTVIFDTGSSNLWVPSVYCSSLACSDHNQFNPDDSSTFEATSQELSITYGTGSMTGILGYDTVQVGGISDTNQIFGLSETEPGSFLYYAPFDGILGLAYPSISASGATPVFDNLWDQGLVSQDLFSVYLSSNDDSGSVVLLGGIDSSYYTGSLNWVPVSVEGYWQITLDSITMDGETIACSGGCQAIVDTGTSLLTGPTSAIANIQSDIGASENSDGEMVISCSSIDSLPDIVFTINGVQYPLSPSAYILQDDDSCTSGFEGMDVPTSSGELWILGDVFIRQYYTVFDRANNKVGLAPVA
Procedure, shortened: as §2

In the case of `O=C1C[C@H]2CCCN2C(=O)[C@H](Cc2ccccc2)NC(=O)[C@@H](NC(=O)c2ccc(Cl)cc2)CCC=CCCCCN1` (mixture of isomers) [peptide 46], the IC50 (rat α-thrombin; individual replicates R1-R3, read-out: IC50, rat alpha thrombin inhibition) is reported as 18.6 nM and 18.8 nM and 18.2 nM, the Ki (rat α-thrombin; individual replicates R1-R3, read-out: Ki, rat alpha thrombin inhibition) is reported as 10.3 nM and 10.4 nM and 10.1 nM and the “slope normalized to DMSO, rat alpha thrombin inhibition” value (rat α-thrombin; peptide 1.00E+02 uM) is reported as 8.3 and 7.3 and 7.2. The “slope normalized to DMSO, rat alpha thrombin inhibition” value (rat α-thrombin; peptide 1.19E-05 uM) was 99.4 and 100.3 and 100.6, the “slope normalized to DMSO, rat alpha thrombin inhibition” value (rat α-thrombin; peptide 1.22E-02 uM) was 60.3 and 60.4 and 59.6 and the “slope normalized to DMSO, rat alpha thrombin inhibition” value (rat α-thrombin; peptide 1.25E+01 uM) was 5.7 and 8.0 and 8.3. For the same compound, the “slope normalized to DMSO, rat alpha thrombin inhibition” value (rat α-thrombin; peptide 1.53E-03 uM) was 88.8 and 87.9 and 87.4, the “slope normalized to DMSO, rat alpha thrombin inhibition” value (rat α-thrombin; peptide 1.56E+00 uM) was 10.8 and 10.2 and 9.8 and the “slope normalized to DMSO, rat alpha thrombin inhibition” value (rat α-thrombin; peptide 1.91E-04 uM) was 94.6 and 95.0 and 96.1. The “slope normalized to DMSO, rat alpha thrombin inhibition” value (rat α-thrombin; peptide 1.95E-01 uM) was 21.1 and 20.0 and 19.8, the “slope normalized to DMSO, rat alpha thrombin inhibition” value (rat α-thrombin; peptide 2.38E-05 uM) was 96.3 and 97.7 and 98.1 and the “slope normalized to DMSO, rat alpha thrombin inhibition” value (rat α-thrombin; peptide 2.44E-02 uM) was 48.7 and 49.3 and 48.8. For the same compound, the “slope normalized to DMSO, rat alpha thrombin inhibition” value (rat α-thrombin; peptide 2.50E+01 uM) was 12.0 and 7.7 and 6.9, the “slope normalized to DMSO, rat alpha thrombin inhibition” value (rat α-thrombin; peptide 3.05E-03 uM) was 80.9 and 81.1 and 81.9 and the “slope normalized to DMSO, rat alpha thrombin inhibition” value (rat α-thrombin; peptide 3.12E+00 uM) was 9.6 and 9.4 and 8.9. For the same compound, the “slope normalized to DMSO, rat alpha thrombin inhibition” value (rat α-thrombin; peptide 3.81E-04 uM) was 92.9 and 94.7 and 94.0, the “slope normalized to DMSO, rat alpha thrombin inhibition” value (rat α-thrombin; peptide 3.91E-01 uM) was 15.0 and 14.0 and 13.6 and the “slope normalized to DMSO, rat alpha thrombin inhibition” value (rat α-thrombin; peptide 4.77E-05 uM) was 95.4 and 96.4 and 96.6. The “slope normalized to DMSO, rat alpha thrombin inhibition” value (rat α-thrombin; peptide 4.88E-02 uM) was 33.7 and 33.6 and 33.1, the “slope normalized to DMSO, rat alpha thrombin inhibition” value (rat α-thrombin; peptide 5.00E+01 uM) was 7.6 and 7.2 and 7.4 and the “slope normalized to DMSO, rat alpha thrombin inhibition” value (rat α-thrombin; peptide 6.10E-03 uM) was 72.8 and 73.4 and 73.0. The “slope normalized to DMSO, rat alpha thrombin inhibition” value (rat α-thrombin; peptide 6.25E+00 uM) was 10.1 and 8.5 and 8.3, the “slope normalized to DMSO, rat alpha thrombin inhibition” value (rat α-thrombin; peptide 7.63E-04 uM) was 91.2 and 92.2 and 91.3 and the “slope normalized to DMSO, rat alpha thrombin inhibition” value (rat α-thrombin; peptide 7.81E-01 uM) was 13.0 and 11.7 and 11.5. The “slope normalized to DMSO, rat alpha thrombin inhibition” value (rat α-thrombin; peptide 9.54E-05 uM) was 95.8 and 95.1 and 95.6, the “slope normalized to DMSO, rat alpha thrombin inhibition” value (rat α-thrombin; peptide 9.77E-02 uM) was 26.6 and 25.4 and 25.1 and the “PAMPA permeability: % permeability” value ([1]; 50 μM, 12–18 h, acceptor concentration relative to equilibrium) was 55 ± 8%. For the same compound, the “Permeability% (single replicates R1–R3)” value ([1]; 50 μM, 12 h (Fig. 6d)) was 49.41% and 50.43% and 63.83%, the “Permeability% Average” value ([1]; 50 μM, 12 h (Fig. 6d)) was 54.6% and the Papp at 50 μM ([1]; PAMPA, pH 7.4) was 7.76 ×10⁻⁶ cm/s. The remaining at 8 h [2] was 93 ± 12%, the Ki (human α-thrombin; average of R1-R3, read-out: Ki Average, human alpha thrombin inhibition) was 65.1 nM and the IC50 (human α-thrombin; individual replicates R1-R3, read-out: IC50, human alpha thrombin inhibition) was 94.1 nM and 79.8 nM and 79.7 nM. For the same compound, the Ki (human α-thrombin; individual replicates R1-R3, read-out: Ki, human alpha thrombin inhibition) was 72.5 nM (2×) and 61.5 nM (2×) and 61.4 nM (2×), the “slope normalized to DMSO, human alpha thrombin inhibition” value (human α-thrombin; peptide 1.00E+02 uM) was 10.4 and 9.8 and 9.9 and the “slope normalized to DMSO, human alpha thrombin inhibition” value (human α-thrombin; peptide 1.19E-05 uM) was 103.8 and 104.1 and 105.5. The “slope normalized to DMSO, human alpha thrombin inhibition” value (human α-thrombin; peptide 1.22E-02 uM) was 87.6 and 86.9 (2×), the “slope normalized to DMSO, human alpha thrombin inhibition” value (human α-thrombin; peptide 1.25E+01 uM) was 5.3 and 12.2 and 12.4 and the “slope normalized to DMSO, human alpha thrombin inhibition” value (human α-thrombin; peptide 1.53E-03 uM) was 101.5 and 101.1 and 102.6. The “slope normalized to DMSO, human alpha thrombin inhibition” value (human α-thrombin; peptide 1.56E+00 uM) was 20.2 and 17.9 and 18.1, the “slope normalized to DMSO, human alpha thrombin inhibition” value (human α-thrombin; peptide 1.91E-04 uM) was 103.2 and 104.0 and 103.7 and the “slope normalized to DMSO, human alpha thrombin inhibition” value (human α-thrombin; peptide 1.95E-01 uM) was 45.4 and 43.2 and 43.8. For the same compound, the “slope normalized to DMSO, human alpha thrombin inhibition” value (human α-thrombin; peptide 2.38E-05 uM) was 104.8 and 104.2 and 105.6, the “slope normalized to DMSO, human alpha thrombin inhibition” value (human α-thrombin; peptide 2.44E-02 uM) was 80.1 and 79.6 and 79.3 and the “slope normalized to DMSO, human alpha thrombin inhibition” value (human α-thrombin; peptide 2.50E+01 uM) was 11.9 and 11.0 and 10.5. For the same compound, the “slope normalized to DMSO, human alpha thrombin inhibition” value (human α-thrombin; peptide 3.05E-03 uM) was 97.6 and 98.1 and 98.6, the “slope normalized to DMSO, human alpha thrombin inhibition” value (human α-thrombin; peptide 3.12E+00 uM) was 16.0 and 13.3 and 14.6 and the “slope normalized to DMSO, human alpha thrombin inhibition” value (human α-thrombin; peptide 3.81E-04 uM) was 102.7 and 102.9 and 102.6. The “slope normalized to DMSO, human alpha thrombin inhibition” value (human α-thrombin; peptide 3.91E-01 uM) was 32.0 and 29.5 and 28.9, the “slope normalized to DMSO, human alpha thrombin inhibition” value (human α-thrombin; peptide 4.77E-05 uM) was 102.3 and 105.2 and 103.4 and the “slope normalized to DMSO, human alpha thrombin inhibition” value (human α-thrombin; peptide 4.88E-02 uM) was 66.2 and 64.4 and 64.1. The “slope normalized to DMSO, human alpha thrombin inhibition” value (human α-thrombin; peptide 5.00E+01 uM) was 11.3 and 10.4 and 8.0, the “slope normalized to DMSO, human alpha thrombin inhibition” value (human α-thrombin; peptide 6.10E-03 uM) was 94.3 and 94.6 and 94.4 and the “slope normalized to DMSO, human alpha thrombin inhibition” value (human α-thrombin; peptide 6.25E+00 uM) was 14.8 and 13.5 (2×). The “slope normalized to DMSO, human alpha thrombin inhibition” value (human α-thrombin; peptide 7.63E-04 uM) was 99.9 and 102.3 and 103.3, the “slope normalized to DMSO, human alpha thrombin inhibition” value (human α-thrombin; peptide 7.81E-01 uM) was 26.0 and 24.0 (2×) and the “slope normalized to DMSO, human alpha thrombin inhibition” value (human α-thrombin; peptide 9.54E-05 uM) was 102.8 and 104.6 and 103.3. The “slope normalized to DMSO, human alpha thrombin inhibition” value (human α-thrombin; peptide 9.77E-02 uM) was 53.1 and 52.5 and the remaining at 8 h (porcine pepsin) was 96 ± 12%.
